System: p53 and p21 expression
Assay: Western blot of transfected HeLa cells for p53 and p21
Type: cell-based, human
Details: Spy Cas9, 48 h post-transfection
Procedure: Phenotypic analysis of RGNs in HeLa was performed using the Fugene6 transfection reagent as per the manufacturer's protocol. Cells were plated at 2.5×10^5 cells per well in 6-well plates and transfected with a 3 to 1 ratio of RGN expression vector to pLCE (a GFP-expressing plasmid included to determine transfection efficiency). SiHa cells were transfected with HPV-16-specific RGN expression vectors using Lipofectamine3000 (Clontech) using the manufacturer's protocol. Cells were then harvested and lysed in SDS/β-mercaptoethanol protein lysis buffer 48 hours post transfection. Lysates were subjected to electrophoresis on 4-20% SDS-polyacrylamide gels (Bio-Rad) and transferred to nitrocellulose membranes. The membranes were then probed in 5% milk-PBS-T (PBS, 0.1% Tween 20, 0.5% bovine serum albumin) with the following antibodies: anti-Flag (Sigma F1804), a rabbit Rev polyclonal antiserum (Malim et al., 1989), anti-β-actin (Santa Cruz S.C.-47778), anti-p53 (Santa Cruz S.C.-126), anti-p21 (Santa Cruz S.C.-397), and anti-Rb (BD Pharmigen 554136). The membranes were washed in PBS-T, incubated with a species-specific secondary antibody, and then washed again in PBS-T. The membranes were incubated with Western Bright Sirius Western blot detection kit (Advansta) and signals captured using GeneSnap and quantified using GeneTools (Syngene). […]

**Q.** How did the “p53 and p21 expression” value turn out when “E6 sgRNA1: Spy Cas9 sgRNA for HPV-18 E6, GGCGCTTTGAGGATCCAACA; SEQ ID NO: 8 (expressed or natural sequence)” was run?
**A.** The value was “specific induction of both p53 and p21 expression”.

From US10286084B2, “Compositions for the inactivation of virus replication and methods of making and using the same” (priority 2014, dated 2019)
